Measurements as given in US6855843B2, “Inhibitors of α4 mediated cell adhesion” (Tanabe Seiyaku Co., Ltd., priority 1998, dated 2005).

target: T1, α4β7 (adhesion of RPMI cells to CS-1) (Homo sapiens, UniProt P13612+P26010); test: RPMI-CS-1 cell adhesion assay; format: cell-based; conditions: adhesion of RPMI B-cell line (expresses α4β7) to CS-1 peptide coated microwells; read-out: RPMI-CS-1 IC50 value range
T1 construct: endogenous in cells
T1 sequence (P13612 34-1032): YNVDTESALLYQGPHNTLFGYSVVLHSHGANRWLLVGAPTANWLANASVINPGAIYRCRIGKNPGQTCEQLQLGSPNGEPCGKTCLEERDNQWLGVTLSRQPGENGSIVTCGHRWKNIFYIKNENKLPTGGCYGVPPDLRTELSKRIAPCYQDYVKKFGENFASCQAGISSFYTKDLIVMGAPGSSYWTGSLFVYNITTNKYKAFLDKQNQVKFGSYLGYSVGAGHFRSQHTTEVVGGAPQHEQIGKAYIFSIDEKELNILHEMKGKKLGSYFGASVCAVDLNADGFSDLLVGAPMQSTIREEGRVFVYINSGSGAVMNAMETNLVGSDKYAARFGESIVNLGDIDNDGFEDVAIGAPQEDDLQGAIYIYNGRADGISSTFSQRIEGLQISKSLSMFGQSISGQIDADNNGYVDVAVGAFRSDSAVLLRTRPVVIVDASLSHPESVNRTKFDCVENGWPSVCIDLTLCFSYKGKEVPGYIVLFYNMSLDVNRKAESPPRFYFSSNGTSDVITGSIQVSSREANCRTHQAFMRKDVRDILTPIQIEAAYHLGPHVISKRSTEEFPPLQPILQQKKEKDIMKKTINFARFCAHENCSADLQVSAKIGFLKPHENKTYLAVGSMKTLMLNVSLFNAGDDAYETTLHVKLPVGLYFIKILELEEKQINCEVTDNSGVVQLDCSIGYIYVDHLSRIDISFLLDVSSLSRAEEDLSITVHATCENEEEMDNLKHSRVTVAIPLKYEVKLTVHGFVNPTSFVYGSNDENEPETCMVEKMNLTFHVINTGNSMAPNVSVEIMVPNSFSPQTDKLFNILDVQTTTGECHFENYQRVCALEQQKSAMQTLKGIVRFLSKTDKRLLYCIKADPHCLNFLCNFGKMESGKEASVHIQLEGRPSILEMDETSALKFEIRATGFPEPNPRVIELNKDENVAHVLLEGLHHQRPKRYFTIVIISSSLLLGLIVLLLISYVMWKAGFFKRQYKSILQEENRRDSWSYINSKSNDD
T1 sequence (P26010 20-798): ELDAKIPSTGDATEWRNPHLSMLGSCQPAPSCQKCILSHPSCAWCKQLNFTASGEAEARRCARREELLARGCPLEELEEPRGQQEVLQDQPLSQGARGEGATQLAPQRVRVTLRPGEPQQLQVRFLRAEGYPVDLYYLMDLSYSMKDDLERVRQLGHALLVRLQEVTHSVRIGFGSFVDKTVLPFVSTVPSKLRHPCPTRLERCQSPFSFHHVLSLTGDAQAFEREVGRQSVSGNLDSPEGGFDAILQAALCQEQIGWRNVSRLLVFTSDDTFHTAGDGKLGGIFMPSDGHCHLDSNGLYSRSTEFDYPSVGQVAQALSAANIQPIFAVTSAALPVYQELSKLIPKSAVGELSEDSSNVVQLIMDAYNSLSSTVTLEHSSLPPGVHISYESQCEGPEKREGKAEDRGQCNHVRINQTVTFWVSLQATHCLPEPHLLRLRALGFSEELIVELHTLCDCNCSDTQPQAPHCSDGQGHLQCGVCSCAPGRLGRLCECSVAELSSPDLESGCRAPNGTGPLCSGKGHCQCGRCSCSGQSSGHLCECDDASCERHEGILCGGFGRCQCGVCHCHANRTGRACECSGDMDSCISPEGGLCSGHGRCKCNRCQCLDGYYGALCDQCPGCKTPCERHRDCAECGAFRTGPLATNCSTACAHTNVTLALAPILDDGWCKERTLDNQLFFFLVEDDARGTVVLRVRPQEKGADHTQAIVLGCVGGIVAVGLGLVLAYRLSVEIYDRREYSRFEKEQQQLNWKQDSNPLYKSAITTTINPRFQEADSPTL

`COc1ccccc1-c1ccc(C[C@H](NC(=O)c2c(Cl)cc(NS(=O)(=O)C(F)(F)F)cc2Cl)C(=O)O)cc1` [Example 182, N-[2,6-Dichloro-4-[(trifluoromethanesulfonyl)amino]benzoyl]-4-(2-methoxyphenyl)-L-phenylalanine] and `COc1cccc(OC)c1-c1ccc(C[C@H](NC(=O)c2c(Cl)cc(NS(=O)(=O)C(F)(F)F)cc2Cl)C(=O)O)cc1` [Example 184, N-[2,6-Dichloro-4-[(trifluoromethanesulfonyl)amino]benzoyl]-4-(2,6-dimethoxyphenyl)-L-phenylalanine] cannot be ordered by IC50: less than 300 nM for the first, less than 300 nM for the second.

Compared with `COc1cccc(OC)c1-c1ccc(C[C@H](NC(=O)c2ccc(NS(=O)(=O)C(F)(F)F)cc2Cl)C(=O)O)cc1` [Example 183, N-[2-Chloro-4-[(trifluoromethanesulfonyl)amino]-benzoyl]-4-(2,6-dimethoxyphenyl)-L-phenylalanine], `COc1ccccc1-c1ccc(C[C@@H](NC(=O)c2cccc(NS(=O)(=O)C(F)(F)F)c2Cl)C(=O)O)cc1` [Example 186, N-[2-Chloro-3-[(trifluoromethanesulfonyl)amino]-benzoyl]-4-(2-methoxyphenyl)-D-phenylalanine] is higher in IC50: less than 300 nM for the first, 300 to 1000 nM for the second.

`COc1ccccc1-c1ccc(C[C@H](NC(=O)c2ccc(NS(=O)(=O)c3ccc(C(F)(F)F)cc3)cc2Cl)C(=O)O)cc1` [Example 187, N-[2-Chloro-4-[[(4-trifluoromethylphenyl)sulfonyl]amino]benzoyl]-4-(2-methoxyphenyl)-L-phenylalanine] and `COc1ccccc1-c1ccc(C[C@H](NC(=O)c2ccc(NS(=O)(=O)c3ccc(F)cc3)cc2Cl)C(=O)O)cc1` [Example 189, N-[2-Chloro-4-[[(4-fluorophenyl)sulfonyl]amino]benzoyl]-4-(2-methoxyphenyl)-L-phenylalanine] cannot be ordered by IC50: less than 300 nM for the first, less than 300 nM for the second.

`COc1ccccc1-c1ccc(C[C@H](NC(=O)c2ccc(NS(=O)(=O)c3ccc(C)cc3)cc2Cl)C(=O)O)cc1` [Example 188, N-[2-Chloro-4-(tosylamino)benzoyl]-4-(2-methoxyphenyl)-L-phenylalanine] and `COc1ccc(S(=O)(=O)Nc2ccc(C(=O)N[C@@H](Cc3ccc(-c4ccccc4OC)cc3)C(=O)O)c(Cl)c2)cc1` [Example 190, N-[2-Chloro-4-[[(4-methoxyphenyl)sulfonyl]amino]-benzoyl]-4-(2-methoxyphenyl)-L-phenylalanine] cannot be ordered by IC50: less than 300 nM for the first, less than 300 nM for the second.

`COc1ccccc1-c1ccc(C[C@H](NC(=O)c2ccc(NS(=O)(=O)c3cccs3)cc2Cl)C(=O)O)cc1` [Example 191, N-[2-Chloro-4-[(2-thienylsulfonyl)amino]benzoyl]-4-(2-methoxyphenyl)-L-phenylalanine] and `COc1ccccc1-c1ccc(C[C@H](NC(=O)c2ccc(NS(=O)(=O)c3ccccc3C)cc2Cl)C(=O)O)cc1` [Example 192, N-[2-Chloro-4-[[(2-methylphenyl)sulfonyl]amino]benzoyl]-4-(2-methoxyphenyl)-L-phenylalanine] cannot be ordered by IC50: less than 300 nM for the first, less than 300 nM for the second.

First: COc1ccccc1-c1ccc(C[C@H](NC(=O)c2ccc(NC(=S)NCc3ccccc3)cc2Cl)C(=O)O)cc1 [Example 194, N-[4-(3-Benzylthioureido)-2-chlorobenzoyl]-4-(2-methoxyphenyl)-L-phenylalanine]
Second: COc1ccccc1-c1ccc(C[C@H](NC(=O)c2ccc(NC(=S)NC(C)C)cc2Cl)C(=O)O)cc1 [Example 195]
The IC50 of the first is higher: 1000 to 5000 nM for the first, 300 to 1000 nM for the second. The second is the more potent here.

`COc1ccccc1-c1ccc(C[C@H](NC(=O)c2ccc(O)cc2Cl)C(=O)O)cc1` [Example 209] and `COc1ccccc1-c1ccc(C[C@H](NC(=O)c2ccc(S(C)(=O)=O)cc2Cl)C(=O)O)cc1` [Example 211] cannot be ordered by IC50: less than 300 nM for the first, less than 300 nM for the second.

`COc1ccccc1-c1ccc(C[C@H](NC(=O)c2ccc(S(N)(=O)=O)cc2)C(=O)O)cc1` [Example 210] and `CC(C)Oc1ccccc1-c1ccc(C[C@H](NC(=O)c2c(Cl)cccc2Cl)C(=O)O)cc1` [Example 225, N-(2,6-Dichlorobenzoyl)-4-(2-i-propoxyphenyl)-L-phenylalanine] fall in the same range of IC50: 1000 to 5000 nM for the first, 1000 to 5000 nM for the second.

Compared with `O=Cc1sccc1-c1ccc(C[C@H](NC(=O)c2c(Cl)cccc2Cl)C(=O)O)cc1` [Example 214, N-(2,6-Dichlorobenzoyl)-4-(2-formyl-3-thienyl)-L-phenylalanine], `O=C(N[C@@H](Cc1ccc(-c2ccsc2CO)cc1)C(=O)O)c1c(Cl)cccc1Cl` [Example 218, N-(2,6-Dichlorobenzoyl)-4-(2-hydroxymethyl-3-thienyl)-L-phenylalanine] is higher in IC50: 300 to 1000 nM for the first, 1000 to 5000 nM for the second. The first is the more potent here.

`O=C(N[C@@H](Cc1ccc(-c2ccncc2)cc1)C(=O)O)c1c(Cl)cccc1Cl` [Example 217, N-(2,6-Dichlorobenzoyl)-4-(4-pyridyl)-L-phenylalanine] and `CC(C)Oc1cccc(-c2ccc(C[C@H](NC(=O)c3c(Cl)cccc3Cl)C(=O)O)cc2)c1` [Example 224, N-(2,6-Dichlorobenzoyl)-4-(3-i-propoxyphenyl)-L-phenylalanine] fall in the same range of IC50: 1000 to 5000 nM for the first, 1000 to 5000 nM for the second.

First: N#Cc1sccc1-c1ccc(C[C@H](NC(=O)c2c(Cl)cccc2Cl)C(=O)O)cc1 [Example 219, N-(2,6-Dichlorobenzoyl)-4-(2-cyano-3-thienyl)-L-phenylalanine]
Second: O=C(N[C@@H](Cc1ccc(-c2c(O)ccc3c2OCO3)cc1)C(=O)O)c1c(Cl)cccc1Cl [Example 236, N-(2,6-Dichlorobenzoyl)-4-(2,3-methylenedioxy-6-hydroxyphenyl)-L-phenylalanine]
The IC50 of the first is higher: 300 to 1000 nM for the first, less than 300 nM for the second. The second is the more potent here.

`COc1cc(OCc2ccsc2)cc(OC)c1-c1ccc(C[C@H](NC(=O)c2c(Cl)cccc2Cl)C(=O)O)cc1` [Example 220, N-(2,6-Dichlorobenzoyl)-4-[2,6-dimethoxy-4-(3-thienylmethoxy)phenyl]-L-phenylalanine] and `COc1cc(OCCO)cc(OC)c1-c1ccc(C[C@H](NC(=O)c2c(Cl)cccc2Cl)C(=O)O)cc1` [Example 222, N-(2,6-Dichlorobenzoyl)-4-[2,6-dimethoxy-4-(2-hydroxyethoxy)phenyl]-L-phenylalanine] cannot be ordered by IC50: less than 300 nM for the first, less than 300 nM for the second.

First: COc1cc(OCc2c(Cl)cccc2Cl)cc(OC)c1-c1ccc(C[C@H](NC(=O)c2c(Cl)cccc2Cl)C(=O)O)cc1 [Example 221, N-(2,6-Dichlorobenzoyl)-4-[2,6-dimethoxy-4-[(2,6-dichlorophenyl)methoxy]phenyl]-L-phenylalanine]
Second: COc1cc(OCCN(C)C)cc(OC)c1-c1ccc(C[C@H](NC(=O)c2c(Cl)cccc2Cl)C(=O)O)cc1 [Example 223, N-(2,6-Dichlorobenzoyl)-4-[2,6-dimethoxy-4-[2-(N,N-dimethylamino)ethoxy]phenyl]-L-phenylalanine]
The IC50 of the first is higher: 1000 to 5000 nM for the first, less than 300 nM for the second. The second is the more potent here.

`COc1cccc(OC(C)C)c1-c1ccc(C[C@H](NC(=O)c2c(Cl)cccc2Cl)C(=O)O)cc1` [Example 226, N-(2,6-Dichlorobenzoyl)-4-(2-i-propyloxy-6-methoxyphenyl)-L-phenylalanine] and `COCOc1ccc2c(c1-c1ccc(C[C@H](NC(=O)c3c(Cl)cccc3Cl)C(=O)O)cc1)OCO2` [Example 235, N-(2,6-Dichlorobenzoyl)-4-[2,3-methylenedioxy-6-(methoxymethoxy)phenyl]-L-phenylalanine] cannot be ordered by IC50: less than 300 nM for the first, less than 300 nM for the second.

`CN(C)CCOc1ccc2c(c1-c1ccc(C[C@H](NC(=O)c3c(Cl)cccc3Cl)C(=O)O)cc1)OCO2` [Example 234, N-(2,6-Dichlorobenzoyl)-4-[2,3-methylenedioxy-6-[2-(N,N-dimethylamino)ethoxy]phenyl]-L-phenylalanine] was tested, and the IC50 was less than 300 nM.
